Test results as given in US20210223233A1, “Mitochondrial Conductance Inhibitors and Methods of Use Thereof” (The Regents of the University of California, priority 2018, published 2021).
Read-outs that look alike come from different tables or passages of the source.

Tests used:
[1] = system: inner mitochondrial membrane nonselective monovalent cation conductance (NMCC); format: biochemical, mouse
Protocol: The homogenate was centrifuged at 700 g for 5-10 min to pellet nuclei and unbroken cells. For some tissues, the first nuclear pellet was resuspended in the same solution and homogenized again to increase the yield of mitochondria. Mitochondria were collected by centrifugation of the supernatant at 8,500 g for 10 min. Mitochondria were suspended in a solution containing 140 mM sucrose, 440 mM D-mannitol, 5 mM HEPES, and 1 mM EGTA (pH adjusted to 7.2 with KOH), and then subjected to a French press at 2,000 psi to rupture the outer mitochondrial membrane (OMNI) and release the inner mitochondrial membrane (IMM) to form mitoplasts. Mitoplasts were pelleted at 10,500 g for 15 min and resuspended for storage in […] of solution containing 750 mM KCl, 100 mM HEPES and 1 mM EGTA (pH adjusted to 7.2 with KOH) to further release the IMM from the OMNI, see FIG. 1A. […] Mitochondria and mitoplasts were prepared at 0-4° C. and stored on ice for up to 5 h. Tissues were isolated from a mitochondrial calcium uniporter (MCU) knock-out mouse unless otherwise indicated.
A glass pipette recording electrode was used to form a gigaohm seal with the IMM in a bath solution containing 150 mM KCl, 10 mM HEPES, and 1 mM EGTA, pH 7.2 (adjusted with KOH). Capacitive transients were completely compensated right after the seal was formed. The patch of the IMM attached to the glass pipette recording electrode was then ruptured by high-amplitude voltage pulses (200-500 mV).
Currents were recorded using an Axopatch 200B amplifier (Molecular Devices). The current was dropped to −160 mV and then ramped up for 850 mS to +80 mV. All voltages indicated correspond to the mitochondrial matrix in respect to the bath (cytosol). Mitoplast conductance was normalized to the membrane capacitance (Cm) in all tissues examined. Current amplitudes for histograms were measured within 5 mS after stepping the membrane from 0 to −160 mV and were normalized to the total current. Whole-mitoplast control currents were recorded in a bath solution containing 150 mM HEPES, 1.5 mM EGTA, pH 7.0 adjusted with Tris base, osmolarity to 300 mmol/kg with sucrose.
For the assay, the pipette solution contained 110 mM Na-gluconate, 5 mM EGTA, 40 mM HEPES, 5 mM EDTA, and 1 mM NaCl and was tonicity adjusted to ˜350-370 mmol/kg with sucrose and pH adjusted to pH 7 with 1 M NaOH. The control bath solution contained 110 mM Na-gluconate, and 40 mM HEPES and was pH adjusted to pH 7 with 1 M NaOH. When assaying for the effect Ca^2+, 5 mM CaCl2) was added to the described bath solution.
For the DCCD assay, mitoplasts were prepared from wild-type C56BL/6 mice. The pipette solution contained 150 mM tetramethylammonium (TMA) hydroxide, 1.5 mM EGTA, 2 mM MgCl2, and 150 mM HEPES, was tonicity adjusted to ˜450 mmol/kg with sucrose and pH adjusted to pH 7 with D Gluconic Acid, and the bath solution contained 150 mM KCl, 1.5 mM EGTA, and 40 mM HEPES, and was pH adjusted to pH 7.2 with 1 M KOH. When assaying for DCCD effect, 10 μM DCCD was added to the described bath solution. […],
When assaying for inhibitor effect, […] or 5 μM CATR was added to the described bath solution.
For the Na^+ assays, the pipette solution contained 110 mM Na-gluconate, 5 mM EGTA, 40 mM HEPES, 5 mM EDTA, and 1 mM NaCl and was tonicity adjusted to ˜350-370 mmol/kg with sucrose and pH adjusted to pH 7 with 1 M NaOH. The bath solution contained 110 mM Na-gluconate, 5 mM EGTA, 40 mM HEPES, and 5 mM EDTA and was pH adjusted to pH 7 with 1 M NaOH.

[2] = log octanol/water partition coefficient; source not stated; cited from earlier work
[3] = 10 μM antimycin in bath, 125 mM K-gluconate, pH 7

Compound: CC(C)(C)c1ccc(CCOc2ncnc3ccccc23)cc1 [fenazaquin]
- effect on monovalent cation conductance ([1]; 10 μM fenazaquin in bath, 110 mM Na-gluconate, pH 7): little to no effect

Compound: C=C1[C@@H]2CC[C@H]3[C@]4(C)C[C@H](O[C@@H]5O[C@H](CO)[C@@H](OS(=O)(=O)O)[C@H](OS(=O)(=O)O)[C@H]5OC(=O)CC(C)C)CC(C(=O)O)(C(=O)O)[C@H]4CC[C@]3(C2)[C@H]1O [CATR, carboxyatractyloside]
- effect on monovalent cation conductance ([1]; 5 μM CATR in bath, 125 mM K-gluconate, pH 7): little to no effect

Compound: CCCCCCCCCCC(O)C1CCC(C2CCC(C(O)CCCCCCCCCCC(O)CC3=CC(C)OC3=O)O2)O1 (stereo not drawn) [rolliniastatin]
- effect on monovalent cation conductance ([1]; 2 μM rolliniastatin in bath, 125 mM K-gluconate, pH 7): little to no effect

Compound: Cc1nn(C)c(Oc2ccccc2)c1/C=N/OCc1ccc(C(=O)OC(C)(C)C)cc1 [fenipiroximate]
- effect on monovalent cation conductance ([1]; 0.5 μM fenipiroximate in bath, 125 mM K-gluconate, pH 7): little to no effect

Compound: CCN(c1nc(N)c(C(=O)NC(=N)N)nc1Cl)C(C)C [EIPA, 5-(N-ethyl-N-isopropyl)amiloride]
- Concentration [1]: 80 µM
- effect on monovalent cation conductance ([1]; K+ assay (110 mM K-gluconate, pH 7), 80 μM EIPA in bath): significantly and almost completely inhibited
- effect on monovalent cation conductance ([1]; Na+ assay (110 mM Na-gluconate, pH 7), 100 μM EIPA in bath): significantly and almost completely inhibited

Compound: bullatacin
- effect on monovalent cation conductance ([1]; 1 μM bullatacin in bath, 125 mM K-gluconate, pH 7): little to no effect

Compound: CC[C@H]1/C=C/C=C/C[C@@H](C)[C@H](O)[C@@](C)(O)C(=O)[C@@H](C)[C@H](O)[C@@H](C)C(=O)[C@@H](C)[C@H](O)[C@@H](C)/C=C/C(=O)O[C@@H]2[C@H](C)[C@H](CC1)O[C@]1(CC[C@H](C)[C@H](C[C@@H](C)O)O1)[C@H]2C [oligomycin]
- effect on monovalent cation conductance ([1]; 10 oligomycin (unit not given) in bath, 125 mM K-gluconate, pH 7): little to no effect

Compound: C=C(C)[C@H]1Cc2c(ccc3c2O[C@@H]2COc4cc(OC)c(OC)cc4[C@@H]2C3=O)O1 [Rotenone, rotenone]
- effect on monovalent cation conductance ([1]; 10 μM rotenone in bath, 110 mM Na-gluconate, pH 7): little to no effect

Compound: C(=NC1CCCCC1)=NC1CCCCC1 [DCCD, dicyclohexylcarbodiimide]
- effect on monovalent cation conductance ([1]; 10 μM DCCD in bath, 150 mM KCl bath, TMA pipette, mitoplasts from wild-type C56BL/6 mice): little to no effect

Compound: C/C=C(\C)[C@H](O)[C@H](C)/C=C(C)/C=C/C/C(C)=C/Cc1nc(OC)c(OC)c(O)c1C [piericidin]
- effect on monovalent cation conductance ([1]; 1 μM piericidin in bath, 110 mM K-gluconate, pH 7): little to no effect

Compound: N/C(=N\C(=O)c1nc(Cl)c(N)nc1N)NCc1ccccc1 [benzamil]
- effect on monovalent cation conductance ([1]; 10 μM benzamil in bath, 125 mM K-gluconate, pH 8): little to no effect

Compound: atpenin
- effect on monovalent cation conductance ([1]; 0.2 μM or 1 μM atpenin in bath, 125 mM K-gluconate, pH 7): little to no effect

Compound: CN(CCCCCCc1ccccc1)CCCCNC(=O)c1nc(Cl)c(NCc2ccc(Cl)cc2)nc1N [AA6, 3-amino-6-chloro-5-((4-chlorobenzyl)amino)-N-(4-(methyl(6-phenylhexyl)amino)butyl)pyrazine-2-carboxamide]
- effect on monovalent cation conductance ([1]; 200 nM AA6 in bath, 125 mM K-gluconate, pH 7): almost completely inhibited

Compound: N/C(=N\C(=O)c1nc(Cl)c(NCc2ccc(I)cc2)nc1N)NCCCCc1ccccc1 [5m, (E)-3-amino-N-(amino((4-phenylbutyl)amino)methylene)-6-chloro-5-((4-iodobenzyl)amino)pyrazine-2-carboxamide]
- effect on monovalent cation conductance ([1]; 1 μM 5m in bath, 125 mM K-gluconate, pH 7): almost completely inhibited

Compound: [H]/N=C(/N)N/C(=N/[H])NCCc1ccccc1 [Phenformin]
- Concentration [1]: 2000 µM
- effect on monovalent cation conductance ([1]; 1 mM phenformin in bath, 125 mM K-gluconate, pH 7): almost completely inhibited
- logP [2]: −0.83

Compound: Tertiapin Q [TQ]
- effect on monovalent cation conductance ([1]; 0.5 μM TQ in bath, 125 mM K-gluconate, pH 7): little to no effect

Compound: C/C=C(C)/C=C/C=C/[C@H](OC)[C@@H](C)[C@@H](OC)[C@@H](C)CCc1oc2c(O)c(OC)cc(OC)c2c(=O)c1C [stigmatellin]
- effect on monovalent cation conductance ([1]; 0.5 μM stigmatellin in bath, 125 mM K-gluconate, pH 7): little to no effect

Compound: CO/C(=C/C(N)=O)[C@H](C)[C@H](/C=C/c1csc(-c2csc([C@@H](C)/C=C/C=C/C(C)C)n2)n1)OC [myxothiazol]
- effect on monovalent cation conductance ([1]; 10 μM myxothiazol in bath, 125 mM K-gluconate, pH 7): little to no effect

Compound: [Ca+2].[Cl-].[Cl-] [Ca^2+, CaCl2]
- effect on monovalent cation conductance ([1]; 5 mM CaCl2 added to bath, 110 mM Na-gluconate, no chelator in bath, pH 7): inhibited

Compound: CCCCC/C=C\C/C=C\C/C=C\C/C=C\CCCC(=O)O [AA, arachidonic acid]
- effect on monovalent cation conductance ([1]; […] AA in bath, 125 mM K-gluconate, pH 7): little to no effect

Compound: [H]/N=C(\N/C(=N/[H])Nc1ccc(Cl)cc1)NC(C)C [Proguanil]
- Concentration [1]: 100 µM
- effect on monovalent cation conductance ([1]; 100 μM proguanil in bath, 125 mM K-gluconate, pH 7): almost completely inhibited
- logP [2]: 2.53

Compound: CN(C)C(=N)NC(=N)N [Metformin]
- Concentration [1]: 30000 µM
- effect on monovalent cation conductance ([1]; pH 7): almost completely inhibited

Compound: antimycin
- effect on monovalent cation conductance [1, 3]: little to no effect
- uncoupling H+ current overlapping with the K+ current [1, 3]: elicited an uncoupling H^+ current

Compound: CCCCCCCCN/C(N)=N/C(=O)c1nc(Cl)c(NCc2ccc(I)cc2)nc1N [5o, (E)-3-amino-N-(amino(octylamino)methylene)-6-chloro-5-((4-iodobenzyl)amino)pyrazine-2-carboxamide]
- effect on monovalent cation conductance ([1]; 1 μM 5o in bath, 125 mM K-gluconate, pH 7): almost completely inhibited

Compound: C[n+]1ccc(-c2ccccc2)cc1 [MPP+, 1-methyl-4-phenylpyridinium]
- effect on monovalent cation conductance ([1]; 0.5 mM MPP+ in bath, 125 mM K-gluconate, pH 7): little to no effect
